Reference: publication PMC5458052 (Nature Communications, 2017)
Where “and” joins values, the source holds several entries; their conditions need not be identical. Equal entries are not always repeated. Where two headings read alike, the source gives them in different places.

Tests used:
[1] = tested on: P. falciparum lab lines FC27 and K1; test: microbe, parasite or virus in culture; assay type: cell-based; details: Plasmodium falciparum, median of 3 independent experiments
[2] = tested on: P. vivax clinical field isolates; test: microbe, parasite or virus in culture; assay type: cell-based; details: Plasmodium vivax, read-out: Median IC50
[3] = tested on: P. falciparum clinical field isolates; test: microbe, parasite or virus in culture; assay type: cell-based; details: Plasmodium falciparum, read-out: Median IC50
[4] = tested on: P. falciparum strain 3D7A; parameters: method as in PMID 22383983; details: cited from earlier work
[5] = tested on: P. falciparum strains (sensitive and resistant); test: microbe, parasite or virus in culture; assay type: cell-based; details: Plasmodium falciparum, mean ± SD n=3
[6] = Rat PK iv 1 mg/kg (Chem Partners); details: in vivo
[7] = Rat blood stability in vitro; details: male, Sprague Dawley, freshly collected whole blood
P. falciparum 3D7 = test: In vitro antimalarial activity, drug sensitivity testing (3D7); assay type: cell-based; details: Plasmodium falciparum
[8] = In vitro intrinsic clearance, rat liver microsomes (Chem Partners); assay type: in vitro ADME; details: rat (R) liver microsomes
[9] = In vitro intrinsic clearance, human liver microsomes (Chem Partners); assay type: in vitro ADME; details: human (H) liver microsomes
P. berghei [10] = tested on: P. berghei; parameters: species or system Plasmodium berghei
[11] = Metabolic stability and metabolite profile in mouse liver microsomes; assay type: in vitro ADME; details: for Relative Peak Area (expressed as % total metabolite peak area generated over 60 minutes): metabolite of E209, mouse liver microsomes with NADPH; for Degradation half-life / In vitro CLint / Microsome-Predicted EH: mouse liver microsomes
[12] = Metabolic stability and metabolite profile in human liver microsomes; details: for Relative Peak Area (expressed as % total metabolite peak area generated over 60 minutes): metabolite of E209, human liver microsomes with NADPH; for In vitro CLint / Microsome-Predicted EH / Degradation half-life: human liver microsomes
[13] = Metabolic stability and metabolite profile in rat liver microsomes; assay type: in vitro ADME; details: for Relative Peak Area (expressed as % total metabolite peak area generated over 60 minutes): metabolite of E209, rat liver microsomes with NADPH; for Degradation half-life / In vitro CLint / Microsome-Predicted EH: rat liver microsomes
[14] = Mammalian cell cytotoxicity; assay type: cell-based; details: human; HeLa cells, n=3; read-out: cytotoxicity median IC50
[15] = Solubility at 37°C over a 6 hour incubation; assay type: physicochemical; details: free base equivalent
P. berghei [16] = tested on: P. berghei; parameters: method as in Charman et al. 12; details: ref Charman et al. 12, cited from earlier work
[17] = tested on: African variant G6PD deficient human red blood cells (huRBC); details: 7 days post-treatment; E209 up to 50 mg kg^−1 day^−1 for 3 days; PQ 25 mg/kg/day for 3 days
[18] = 10 × IC50, previous results on standard anti-malarials

CCN(CC)Cc1cc(Nc2ccnc3cc(Cl)ccc23)ccc1O [Amodiaquine, amodiaquine]
IC50 ([1]; K1, FC27 (CQ S) lab line): 33.1 nM | IC50 ([1]; K1, K1 (CQ R) lab line): 39.3 nM | IC50 [2]: 50.6 nM | IC50 [3]: 25.6 nM

C[C@@H]1CC[C@H]2[C@@H](C)C(=O)O[C@@H]3O[C@@]4(C)CC[C@@H]1[C@]32OO4 [Artemisinin, artemisinin]
Lag phase [4]: 0 h | Log PRR [4]: > 4.8 | PCT 99.9 % [4]: < 24 h | Slope [4]: −0.101

O=C1C(O)=C([C@H]2CC[C@H](c3ccc(Cl)cc3)CC2)C(=O)c2ccccc21 [Atovaquone, atovaquone]
Lag phase [4, 18]: 48 h | Log PRR [4, 18]: 2.9 | PCT 99.9 % [4, 18]: 81 h | Slope [4, 18]: −0.060

CCN(CC)CCCC(C)Nc1ccnc2cc(Cl)ccc12 (stereo not shown) [Chloroquine, chloroquine]
IC50 ([1]; K1, K1 (CQ R) lab line): 212 nM | IC50 [2]: 147 nM | Lag phase [4]: 0 h | PCT 99.9 % [4]: 34 h | Slope [4]: −0.094 | IC50 ([5]; DD2, strain Dd2 (chloroquine resistant)): 150 ± 25.7 nM | IC50 ([5]; HB3, strain HB3 (chloroquine sensitive)): 9 ± 1.5 nM | IC50 ([5]; NF54, strain NF54 (chloroquine sensitive)): 5.9 ± 1 nM | IC50 ([5]; TM90C2B, strain TM90C2B (chloroquine resistant)): 121 ± 20.6 nM | IC50 ([5]; strain 7G8 (chloroquine resistant)): 55 ± 9.4 nM | IC50 ([5]; strain D6 (chloroquine sensitive)): 8.6 ± 1.5 nM | IC50 ([5]; strain FCB (chloroquine resistant)): 66 ± 11.3 nM | IC50 ([5]; strain K1 (chloroquine resistant)): 173 ± 29.5 nM | IC50 ([5]; strain V1/S (chloroquine resistant)): 194 ± 33 nM | IC50 [3]: 85.5 nM

c1cc(C2CCC3(CC2)OOC2(OO3)C3CC4CC(C3)CC2C4)ccc1OCCN1CCOCC1 (stereo not shown) [Compound 4]
clearance [6]: 7.1 mL/min/kg | half-life [6]: 1.1 h | half-life at 1 µM [7]: 14 h | IC50 (P. falciparum 3D7): 10 ± 1 nM | CLint scaled [8]: 86 mL/min/kg | CLint scaled [9]: 135 mL/min/kg

c1cc(C2CCC3(CC2)OOC2(OO3)C3CC4CC(C3)CC2C4)ccc1OCCCN1CCOCC1 (stereo not shown) [Compound 5]
clearance [6]: 6.5 mL/min/kg | half-life [6]: 1.5 h | half-life at 1 µM [7]: 15 h | IC50 (P. falciparum 3D7): 7.5 ± 0.2 nM | In vivo (Pb) MSD (days) at 1 x 30 mg/kg (P. berghei [10]): 16 days | CLint scaled [8]: 75 mL/min/kg | CLint scaled [9]: 147 mL/min/kg

CS(=O)(=O)N1CCN(CCOc2ccc(C3CCC4(CC3)OOC3(OO4)C4CC5CC(C4)CC3C5)cc2)CC1 (stereo not shown) [Compound 6]
clearance [6]: 3.5 mL/min/kg | half-life [6]: 3.2 h | half-life at 1 µM [7]: 12 h | IC50 (P. falciparum 3D7): 3.5 ± 0.2 nM | In vivo (Pb) MSD (days) at 1 x 30 mg/kg (P. berghei [10]): 19 days and 19.3 (14, 30,14) days | CLint scaled [8]: 38 mL/min/kg | CLint scaled [9]: 257 mL/min/kg

CS(=O)(=O)N1CCN(CCCOc2ccc(C3CCC4(CC3)OOC3(OO4)C4CC5CC(C4)CC3C5)cc2)CC1 (stereo not shown) [Compound 7]
clearance [6]: 3.5 mL/min/kg | half-life [6]: 3.2 h | half-life at 1 µM [7]: 15 h | IC50 (P. falciparum 3D7): 3.7 ± 0.1 nM | In vivo (Pb) MSD (days) at 1 x 30 mg/kg (P. berghei [10]): 14 (14, 14, 14) days | CLint scaled [8]: 29 mL/min/kg | CLint scaled [9]: 238 mL/min/kg

FC1(F)CCN(CCOc2ccc(C3CCC4(CC3)OOC3(OO4)C4CC5CC(C4)CC3C5)cc2)CC1 (stereo not shown) [Compound 8]
clearance [6]: 1.3 mL/min/kg | half-life [6]: 2.8 h | half-life at 1 µM [7]: 16 h | IC50 (P. falciparum 3D7): 8.5 ± 0.6 nM | CLint scaled [8]: 60 mL/min/kg | CLint scaled [9]: 107 mL/min/kg

OC1CCC(c2ccc(OCCN3CCC(F)CC3)cc2)CC1 (stereo not shown) [Compound M-180]
Relative Peak Area (expressed as % total metabolite peak area generated over 60 minutes) [11]: 20% | Relative Peak Area (expressed as % total metabolite peak area generated over 60 minutes) [12]: 10% | Relative Peak Area (expressed as % total metabolite peak area generated over 60 minutes) [13]: 9%

O=C1CCC(c2ccc(OCCN3CCC(F)CC3)cc2)CC1 [Compound M-182]
Relative Peak Area (expressed as % total metabolite peak area generated over 60 minutes) [11]: 27% | Relative Peak Area (expressed as % total metabolite peak area generated over 60 minutes) [12]: 11% | Relative Peak Area (expressed as % total metabolite peak area generated over 60 minutes) [13]: 13%

c1cc(C2CCC3(CC2)OOC2(OO3)C3CC4CC(C3)CC2C4)ccc1CN1CCOCC1 (stereo not shown) [Compound N205]
Degradation half-life ([11]; substrate 1 µM): 0.8 h | In vitro CLint ([11]; substrate 1 µM): 37 µL/min/mg protein | Microsome-Predicted EH ([11]; substrate 1 µM): 0.44 | Degradation half-life ([11]; substrate 5 µM): 1.45 h | In vitro CLint ([11]; substrate 5 µM): 20 µL/min/mg protein | Microsome-Predicted EH ([11]; substrate 5 µM): 0.30 | In vitro CLint ([12]; substrate 1 µM): 51 µL/min/mg protein | Microsome-Predicted EH ([12]; substrate 1 µM): 0.67 | Degradation half-life ([12]; substrate 1 µM, NADPH-dependent): 0.567 h | Degradation half-life ([12]; substrate 5 µM): 0.717 h | In vitro CLint ([12]; substrate 5 µM): 41 µL/min/mg protein | Microsome-Predicted EH ([12]; substrate 5 µM): 0.62 | Degradation half-life ([13]; substrate 1 µM): 0.25 h | In vitro CLint ([13]; substrate 1 µM): 118 µL/min/mg protein | Microsome-Predicted EH ([13]; substrate 1 µM): 0.75 | Degradation half-life ([13]; substrate 5 µM): 0.333 h | In vitro CLint ([13]; substrate 5 µM): 89 µL/min/mg protein | Microsome-Predicted EH ([13]; substrate 5 µM): 0.69

C[C@H]1[C@@H](O)O[C@@H]2O[C@@]3(C)CC[C@H]4[C@H](C)CC[C@@H]1[C@@]24OO3 [DHA, dihydroartemisinin, reference compound]
IC50 [14]: 400 nM

[O-][N+]1(CCOc2ccc(C3CCC4(CC3)OOC3(OO4)C4CC5CC(C4)CC3C5)cc2)CCC(F)CC1 (stereo not shown) [M+16 (IV)]
Relative Peak Area (expressed as % total metabolite peak area generated over 60 minutes) [11]: 9% | Relative Peak Area (expressed as % total metabolite peak area generated over 60 minutes) [12]: 4% | Relative Peak Area (expressed as % total metabolite peak area generated over 60 minutes) [13]: 50%

OC(c1cc(C(F)(F)F)nc2c(C(F)(F)F)cccc12)C1CCCCN1 (stereo not shown) [Mefloquine, mefloquine]
IC50 ([1]; K1, FC27 (CQ S) lab line): 56.2 nM | IC50 [2]: 18 nM | IC50 [3]: 12.7 nM

CS(=O)(=O)O.c1cc(C2CCC3(CC2)OOC2(OO3)C3CC4CC(C3)CC2C4)ccc1CN1CCOCC1 (stereo not shown) [N205 mesylate]
Solubility ([15]; 0.01 N HCl, media pH 2.0, 37°C, 1 h): 250 µg/mL | Solubility ([15]; 0.01 N HCl, media pH 2.0, 37°C, 4 h): 172 µg/mL | Solubility ([15]; 0.01 N HCl, media pH 2.0, 37°C, 6 h): 155 µg/mL | Solubility ([15]; 0.1 N HCl, media pH 1.0, 37°C, 1 h): 21.2 µg/mL | Solubility ([15]; 0.1 N HCl, media pH 1.0, 37°C, 4 h): 17.2 µg/mL | Solubility ([15]; 0.1 N HCl, media pH 1.0, 37°C, 6 h): 16.0 µg/mL | Solubility ([15]; FaSSIF blank, 37°C, 1 h): < 0.1 µg/mL | Solubility ([15]; FaSSIF blank, 37°C, 4 h): < 0.1 µg/mL | Solubility ([15]; FaSSIF blank, 37°C, 6 h): < 0.1 µg/mL | Solubility ([15]; FaSSIF, media pH 6.5, 37°C, 1 h): 24.0 µg/mL | Solubility ([15]; FaSSIF, media pH 6.5, 37°C, 4 h): 18.1 µg/mL | Solubility ([15]; FaSSIF, media pH 6.5, 37°C, 6 h): 26.7 µg/mL | Solubility ([15]; FeSSIF blank, 37°C, 1 h): 2.3 µg/mL | Solubility ([15]; FeSSIF blank, 37°C, 4 h): 0.9 µg/mL | Solubility ([15]; FeSSIF blank, 37°C, 6 h): 1.2 µg/mL | Solubility ([15]; FeSSIF, media pH 5.0, 37°C, 1 h): 1089 µg/mL | Solubility ([15]; FeSSIF, media pH 5.0, 37°C, 4 h): 755 µg/mL | Solubility ([15]; FeSSIF, media pH 5.0, 37°C, 6 h): 783 µg/mL | Solubility ([15]; Phosphate buffer, media pH 7.4, 37°C, 1 h): < 0.1 µg/mL | Solubility ([15]; Phosphate buffer, media pH 7.4, 37°C, 4 h): < 0.1 µg/mL | Solubility ([15]; Phosphate buffer, media pH 7.4, 37°C, 6 h): < 0.1 µg/mL

c1cc([C@H]2CC[C@]3(CC2)OO[C@]2(O3)C3CC4CC(C3)CC2C4)ccc1OCCN1CCOCC1 [OZ439]
cures (P. berghei [16]; animals cured of n=3, single oral dose 30 mg/kg): 3 | In vivo (Pb) MSD (days) at 1 x 30 mg/kg (P. berghei [16]; single oral dose 30 mg kg^-1, P. berghei infected mice): 30 days | IC50 (P. falciparum 3D7): 5.1 ± 0.81 nM

Clc1ccc2c(N3CCN(CCCN4CCN(c5ccnc6cc(Cl)ccc56)CC4)CC3)ccnc2c1 [Piperaquine, piperaquine]
IC50 ([1]; K1, FC27 (CQ S) lab line): 54.6 nM | IC50 ([1]; K1, K1 (CQ R) lab line): 75.5 nM | IC50 [2]: 33.8 nM | IC50 [3]: 35.6 nM

CCc1nc(N)nc(N)c1-c1ccc(Cl)cc1 [Pyrimethamine, pyrimethamine]
Lag phase [4, 18]: 24 h | Log PRR [4, 18]: 3.7 | PCT 99.9 % [4, 18]: 57 h | Slope [4, 18]: −0.077

COc1cc(NC(C)CCCN)c2ncccc2c1 (stereo not shown) [primaquine, reference compound]
loss of huRBC [17]: induced significant loss of huRBC
